Assay results published in ChEMBL document CHEMBL5370531, “Design, synthesis and pharmacological evaluation of 2,3-dihydrobenzofuran IRAK4 inhibitors for the treatment of diffuse large B-cell lymphoma” (Eur J Med Chem, 2023).

Experiments:
[1] = molecular target: T1, Interleukin-1 receptor-associated kinase 4 (Homo sapiens, UniProt Q9NWZ3); test: Inhibition of IRAK4 (unknown origin) by Z-LYTE enzymatic kinase assay
T1 sequence (Q9NWZ3 whole entry): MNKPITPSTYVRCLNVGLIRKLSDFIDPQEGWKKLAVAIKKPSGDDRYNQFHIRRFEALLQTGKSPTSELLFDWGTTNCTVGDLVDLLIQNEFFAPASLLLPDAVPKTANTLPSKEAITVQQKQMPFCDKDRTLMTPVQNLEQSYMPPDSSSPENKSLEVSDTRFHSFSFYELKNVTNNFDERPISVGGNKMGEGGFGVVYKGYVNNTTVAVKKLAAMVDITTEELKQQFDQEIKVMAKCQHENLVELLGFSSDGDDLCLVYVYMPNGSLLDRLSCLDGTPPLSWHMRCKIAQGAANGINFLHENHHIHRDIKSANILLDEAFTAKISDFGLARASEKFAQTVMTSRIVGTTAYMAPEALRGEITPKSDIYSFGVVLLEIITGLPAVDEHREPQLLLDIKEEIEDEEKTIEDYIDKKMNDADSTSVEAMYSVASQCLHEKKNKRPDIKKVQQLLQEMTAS

[2] = Cytotoxicity against human GM00637 cells assessed as inhibition of cell proliferation incubated for 72 hrs by CCK-8 assay; assay type: toxicity, cell-based
[3] = system: U2932; test: Cytotoxicity against human U2932 cells assessed as inhibition of cell proliferation incubated for 72 hrs by CCK-8 assay; assay type: functional, cell-based; conditions: U2932, 72 h
[4] = system: OCI-Ly10; test: Cytotoxicity against human OCILY10 cells assessed as inhibition of cell proliferation incubated for 72 hrs by CCK-8 assay; assay type: functional, cell-based; conditions: OCI-Ly10, 72 h

CC1(C)Cc2cc(NC(=O)c3coc(-c4ccnc(N)c4)n3)c(-c3ccc(C#N)nc3)cc2O1
IC50 [1]: 42.1 nM

CC1(C)Cc2cc(NC(=O)c3coc(-c4ccnc(N)c4)n3)c(-c3ccc(C(F)(F)F)nc3)cc2O1
IC50 [1]: 25.3 nM

CC1(C)Cc2cc(NC(=O)c3cccc(-c4ccc(N)nc4)n3)c(N3CCC(CO)CC3)cc2O1
IC50 [1]: > 100 nM

CCn1cc(-c2cc3c(cc2NC(=O)c2coc(-c4ccnc(N)c4)n2)CC(C)(C)O3)cn1
IC50 [1]: 18.5 nM

COc1cc(-c2cc3c(cc2NC(=O)c2coc(-c4ccnc(N)c4)n2)CC(C)(C)O3)ccn1
IC50 [1]: 22.8 nM

CC1(C)Cc2cc(NC(=O)c3coc(-c4ccnc(N)c4)n3)c(-c3ccoc3)cc2O1
IC50 at 72 h [2]: > 50000 nM
IC50 [3]: 2450 nM
IC50 [4]: 401 nM
IC50 [1]: 10.2 nM

Cc1ccc(-c2cc3c(cc2NC(=O)c2coc(-c4ccnc(N)c4)n2)CC(C)(C)O3)cn1
IC50 at 72 h [2]: > 50000 nM
IC50 [3]: > 50000 nM
IC50 [4]: 3160 nM
IC50 [1]: 12.8 nM

CC1(C)Cc2cc(NC(=O)c3cnn4cccnc34)c(N3CCC(CO)CC3)cc2O1
IC50 [4]: 12400 nM
IC50 [1]: 2.9 nM

CC1(C)Cc2cc(NC(=O)c3coc(N4CCC[C@@H](N)C4)n3)c(N3CCC(CO)CC3)cc2O1
IC50 [1]: > 100 nM

CC1(C)Cc2cc(NC(=O)c3coc(N4CC[C@@H](N)C4)n3)c(N3CCC(CO)CC3)cc2O1
IC50 [1]: 65.9 nM

CC1(C)Cc2cc(NC(=O)c3cccc(-c4ccnc(N)c4)n3)c(N3CCC(CO)CC3)cc2O1
IC50 [1]: > 100 nM

Cc1ncc(-c2cc3c(cc2NC(=O)c2coc(-c4ccnc(N)c4)n2)CC(C)(C)O3)cn1
IC50 at 72 h [2]: > 50000 nM
IC50 [3]: 5180 nM
IC50 [4]: 823 nM
IC50 [1]: 14 nM

CC1(C)Cc2cc(NC(=O)c3coc(-c4ccnc(N)c4)n3)c(N3CCC(C(N)=O)CC3)cc2O1
IC50 [1]: 28.5 nM

COc1ccc(-c2cc3c(cc2NC(=O)c2coc(-c4ccnc(N)c4)n2)CC(C)(C)O3)cn1
IC50 [1]: 26.8 nM

CC(=O)Nc1cc(-c2nc(C(=O)Nc3cc4c(cc3N3CCC(CO)CC3)OC(C)(C)C4)co2)ccn1
IC50 [1]: 62.7 nM

CC1(C)Cc2cc(NC(=O)c3coc(-c4ccnc(N)c4)n3)c(-c3ccnc(C(F)(F)F)c3)cc2O1
IC50 [1]: > 100 nM

CC1(C)Cc2cc(NC(=O)c3coc(-c4ccnc(N)c4)n3)c(-c3ccnc(C#N)c3)cc2O1
IC50 [1]: > 100 nM

Cn1cc(-c2cccc(C(=O)Nc3cc4c(cc3N3CCC(CO)CC3)OC(C)(C)C4)n2)cn1
IC50 [1]: 73.8 nM

CC1(C)Cc2cc(NC(=O)c3coc(-c4ccncc4)n3)c(N3CCC(CO)CC3)cc2O1
IC50 [1]: 22.1 nM

Cc1cc(-c2nc(C(=O)Nc3cc4c(cc3N3CCC(CO)CC3)OC(C)(C)C4)co2)ccn1
IC50 [1]: > 100 nM

CC1(C)Cc2cc(NC(=O)c3cccc(N4CCC[C@@H](N)C4)n3)c(N3CCC(CO)CC3)cc2O1
IC50 [1]: > 100 nM

CC1(C)Cc2cc(NC(=O)c3coc(-c4ccnc(N)c4)n3)c(N3CCC(O)CC3)cc2O1
IC50 [1]: 32.7 nM

CC1(C)Cc2cc(NC(=O)c3coc(-c4ccnc(N)c4)n3)c(N3CCOCC3)cc2O1
IC50 at 72 h [2]: 312 nM
IC50 [3]: 181 nM
IC50 [4]: 109 nM
IC50 [1]: 2.6 nM

CC1(C)Cc2cc(NC(=O)c3cnn4cccnc34)c(N3CCOCC3)cc2O1
IC50 [1]: 6.1 nM

CC1(C)Cc2cc(NC(=O)c3coc(-c4ccnc(N)c4)n3)c(N3CCC(CO)CC3)cc2O1
IC50 [4]: 336 nM
IC50 [1]: 2.1 nM

CC1(C)Cc2cc(NC(=O)c3cccc(N4CC[C@@H](N)C4)n3)c(N3CCC(CO)CC3)cc2O1
IC50 [1]: > 100 nM

CC1(C)Cc2cc(NC(=O)c3coc(-c4ccnc(N)c4)n3)c(-c3cncnc3)cc2O1
IC50 at 72 h [2]: 4630 nM
IC50 [3]: 2090 nM
IC50 [4]: 669 nM
IC50 [1]: 12.7 nM

CC1(C)Cc2cc(NC(=O)c3coc(-c4ccnc(N)c4)n3)c(N3CCN(CC(N)=O)CC3)cc2O1
IC50 [1]: 11.6 nM

CC1(C)Cc2cc(NC(=O)c3coc(-c4ccnc(N)c4)n3)c(N3CCC(CN)CC3)cc2O1
IC50 [1]: 14 nM

Cc1cc(-c2cc3c(cc2NC(=O)c2coc(-c4ccnc(N)c4)n2)CC(C)(C)O3)cc(C)n1
IC50 [1]: > 100 nM

CC(C)n1cc(-c2cc3c(cc2NC(=O)c2coc(-c4ccnc(N)c4)n2)CC(C)(C)O3)cn1
IC50 [1]: 24.7 nM

Cc1noc(C)c1-c1cc2c(cc1NC(=O)c1coc(-c3ccnc(N)c3)n1)CC(C)(C)O2
IC50 [1]: > 100 nM

CC1(C)Cc2cc(NC(=O)c3coc(-c4ccnc(N)c4)n3)c(N3CCN(CCO)CC3)cc2O1
IC50 [1]: 7.4 nM

Cc1cc(-c2cc3c(cc2NC(=O)c2coc(-c4ccnc(N)c4)n2)CC(C)(C)O3)ccn1
IC50 [1]: 30.3 nM

CC1(C)Cc2cc(NC(=O)c3coc(-c4ccnc(N)c4)n3)c(N3CCC(C(C)(C)O)CC3)cc2O1
IC50 [1]: 60.9 nM
